The values that follow come from patent US8703825B2, “Compounds, use thereof as medicaments, and method of preparation thereof” (Universite de Lorraine, priority 2008, dated 2014).

Structures are written as SMILES. Converted amounts (≈) assume the structure as drawn. Read-outs that look alike come from different tables or passages of the source. A value given as a limit tells only on which side of the number the result lay.

Common to all, as to format: cell-based
Assay [1] relates to Staphylococcus aureus ATCC 29213. In words: MIC by microdilution in liquid medium (CLSI / CA-SFM). The note with it: Staphylococcus aureus, ATCC29213, S. aureus ATCC 29213, reference strain; read-out: MIC. The source says: (§1) According to the joint recommendations: • of the “Comite de l′Antibiogramme de la Société Française de Microbiologie” (Antibiogram Committee of the French Society of Microbiology) (CA-SFM) [CA-SFM. Communique 2007 (Edition of January 2007). http://www.sfm.asso.fr] and, • of the “Clinical and Laboratory Standards Institute” (CLSI, formerly “National Committee for Clinical Laboratory Standards” or NCCLS) [NCCLS. 2003. Methods for dilution antimicrobial susceptibility tests for bacteria that grow aerobically; approved standard M7-A6, 6th ed. National Committee for Clinical Laboratory Standards, Wayne, Pa., USA.], five reference bacterial strains were used for the study: Escherichia coli ATCC 25922, Pseudomonas aeruginosa ATCC 27853, Staphylococcus aureus ATCC 25923 & ATCC 29213 and Enterococcus faecalis ATCC 29212.
(§2) The bacteria are cultivated either on Mueller-Hinton agar (Difco, 225250), or in Mueller-Hinton broth (Difco, 275730), at 35° C. [Grare M, Mourer M, Fontanay S, Regnouf-de-Vains J B, Finance C, Duval R E. In vitro activity of para-guanidinoethylcalix[4]arene against susceptible and antibiotic-resistant Gram-negative and Gram-positive bacteria. J. Antimicrob Chemother. 2007; 60: 575-81].
(§3) The various molecules tested were prepared in the form of aqueous solution at 10^−2 mol/L. The solutions used for the biological tests are freshly prepared, and stored for a week at most, at 4° C. The solutions are filtered through a filter with pores of 0.22 μm (Millex®GP; 0.22 μm; Millipore; France) before each test.
(§4) Procedure for determining the Minimum Inhibitory Concentration (MIC)
(§5) The minimum inhibitory concentrations (MIC) were determined by the standardized method of microdilution in liquid medium (96-well microplate, U-shaped bottom, Greiner), in Mueller-Hinton broth, with a final inoculum of 10^5-10^6 CFU/mL, depending on the bacterial species, in accordance with the recommendations of the CLSI.
(§6) For the determination of MIC, bacterial suspensions are prepared from an isolated colony, taken from a Mueller-Hinton agar, taken up in 5 mL of Mueller-Hinton broth. After 24 h of growth, the bacterial suspensions are diluted in sterile distilled water in order to obtain an inoculum of 10^5-10^6 CFU/mL. The purity of the bacterial suspensions is tested by isolation on agar and Gram staining.
(§7) The results are the mean value of 4 independent experiments.

In assay [2] the test system is Pseudomonas aeruginosa ATCC 27853. Described as above. The note with it: ATCC27853, P. aeruginosa ATCC 27853, reference strain, read-out: MIC.
Excerpt: as §1, §2, §3, §4, §5, §6, §7

The subject of assay [3] is Staphylococcus aureus ATCC 25923. The assay is described as above.
Excerpt: as §1, §2, §3, §4, §5, §6, §7

The test system of assay [4] is Enterococcus faecalis ATCC 29212. Described as above. The note with it: ATCC29212, E. faecalis ATCC 29212, reference strain, read-out: MIC.
Excerpt: as §1, §2, §3, §4, §5, §6, §7

The subject of assay [5] is Escherichia coli ATCC 25922. The assay is described as above.
Excerpt: as §1, §2, §3, §4, §5, §6, §7

Assay [6] deals with Gram-positive and Gram-negative bacteria (reference strains and clinical isolates). The assay can be described thus: Antibacterial activity overall (MIC determination). Conditions: summary of MIC results.
Excerpt: as §1
The study also included 5 clinical isolates, obtained from rectal samples and/or from haemoculture: • […] E. coli (EcR1), • methicillin-resistant S. aureus (mecA gene) (SaR1), • vancomycin-resistant E. faecium (vanB gene) (EfR1), • E. faecalis resistant to teicoplanin and to vancomycin (vanA gene) (EfR2), and • P. aeruginosa overexpressing an efflux pump (PaRl).
as §4, §5, §6, §7

The mark [7] stands for this setting: Staphylococcus aureus, ATCC25923, S. aureus ATCC 25923, reference strain, read-out: MIC.
[8] abbreviates: Escherichia coli, ATCC25922, E. coli ATCC 25922, reference strain, read-out: MIC.
Setting [9] is: S. aureus ATCC 25923, reference strain.

Regarding `N=C(N)NCCc1ccc(OCOc2ccc(CCNC(=N)N)cc2)cc1` [compound 1, 1,1-bis(4-(2-guanidinoethyl)phenoxy)methane], the MIC was 8 µg/mL (≈ 21.6 µM) in assay [1]; 64 µg/mL (≈ 173 µM) in assay [2]; 16 µg/mL (≈ 43.2 µM) in assay [3] (setting [7]); 256 µg/mL (≈ 691 µM) in assay [4]; 64 µg/mL (≈ 173 µM) in assay [5] (setting [8]).
With `N=C(N)NCCc1ccc(OCCCOc2ccc(CCNC(=N)N)cc2)cc1` [compound 3, 1,3-bis(4-(2-guanidinoethyl)phenoxy)propane], the MIC in assay [1] worked out at 2 µg/mL (≈ 5.02 µM); in assay [2] it was 64 µg/mL (≈ 161 µM); in assay [3] (setting [7]) it was 4 µg/mL (≈ 10 µM); in assay [4], 128 µg/mL (≈ 321 µM); in assay [5] (setting [8]), 32 µg/mL (≈ 80.3 µM).
For `N=C(N)NCCc1ccc(OCCCCOc2ccc(CCNC(=N)N)cc2)cc1` [compound 4, 1,4-bis(4-(2-guanidinoethyl)phenoxy)butane], the MIC was 1 µg/mL (≈ 2.42 µM) in assay [1]; 64 µg/mL (≈ 155 µM) in assay [2]; 2 µg/mL (≈ 4.85 µM) in assay [3] (setting [7]); 64 µg/mL (≈ 155 µM) in assay [4]; 32 µg/mL (≈ 77.6 µM) in assay [5] (setting [8]).
Regarding `N=C(N)NCCc1ccc(OCCCCCCCOc2ccc(CCNC(=N)N)cc2)cc1` [compound 7, 1,7-bis(4-(2-guanidinoethyl)phenoxy)heptane], the MIC in assay [1] came to 1 µg/mL (≈ 2.2 µM); in assay [2], 16 µg/mL (≈ 35.2 µM); in assay [3] (setting [7]), 1 µg/mL (≈ 2.2 µM); in assay [4], 8 µg/mL (≈ 17.6 µM); in assay [5] (setting [8]), 4 µg/mL (≈ 8.8 µM).
For `N=C(N)NCCc1ccc(OCCCCCCCCCOc2ccc(CCNC(=N)N)cc2)cc1` [compound 9, 1,9-bis(4-(2-guanidinoethyl)phenoxy)nonane], the MIC in assay [1] was 0.25 µg/mL (≈ 0.518 µM); in assay [2], 4 µg/mL (≈ 8.29 µM); in assay [3] (setting [7]), 0.25 µg/mL (≈ 0.518 µM); in assay [4], 1 to 2 µg/mL (≈ 2.07 to 4.14 µM); in assay [5] (setting [8]) it was 1 µg/mL (≈ 2.07 µM). Moreover, in assay [6], the “antibacterial activity (in words)” value is on record as “very good activities on the 5 reference strains tested”.
With `N=C(N)NCCc1ccc(OCCCCCCCCCCOc2ccc(CCNC(=N)N)cc2)cc1` [compound 10, 1,10-bis(4-(2-guanidinoethyl)phenoxy)decane], the MIC is less than 1 µg/mL in assay [1]; 8 µg/mL (≈ 16.1 µM) in assay [2]; less than 1 µg/mL in assay [3] (setting [7]); less than 1 µg/mL in assay [4]; 1 to 2 µg/mL (≈ 2.01 to 4.03 µM) in assay [5] (setting [8]).
`N=C(N)CCc1ccc(OCCCOc2ccc(CCC(=N)N)cc2)cc1` [compound 103, 1,3-bis(4-(2-(amidino)ethyl)phenoxy)propane]: the MIC in assay [1] worked out at 32 µg/mL (≈ 86.8 µM); in assay [2], 128 µg/mL (≈ 347 µM); in assay [3] (setting [7]) it was 32 µg/mL (≈ 86.8 µM); in assay [4], 256 µg/mL (≈ 695 µM); in assay [5] (setting [8]), 128 µg/mL (≈ 347 µM).
For the molecule `N=C(N)CCc1ccc(OCCCCOc2ccc(CCC(=N)N)cc2)cc1` [compound 104, 1,4-bis(4-(2-(amidino)ethyl)phenoxy)butane], the MIC in assay [1] was determined as 2 µg/mL (≈ 5.23 µM); in assay [2] it was 64 µg/mL (≈ 167 µM); in assay [3] (setting [7]), 2 µg/mL (≈ 5.23 µM); in assay [4], 256 µg/mL (≈ 669 µM); in assay [5] (setting [8]) it was 64 µg/mL (≈ 167 µM).
On to `N=C(N)CCc1ccc(OCCCCCCOc2ccc(CCC(=N)N)cc2)cc1` [compound 106, 1,6-bis(4-(2-(amidino)ethyl)phenoxy)hexane], for which the MIC in assay [1] is 2 µg/mL (≈ 4.87 µM); in assay [2], 32 µg/mL (≈ 77.9 µM); in assay [3] (setting [9]) it was 2 (1) mg/L; in assay [3] (setting [7]), 4 µg/mL (≈ 9.74 µM); in assay [4] it was 32 µg/mL (≈ 77.9 µM); in assay [5] (setting [8]), 32 µg/mL (≈ 77.9 µM).
On to `N=C(N)CCc1ccc(OCCCCCCCOc2ccc(CCC(=N)N)cc2)cc1` [compound 107, 1,7-bis(4-(2-(amidino)ethyl)phenoxy)heptane], for which the figures for the MIC in assay [2], in assay [4] and in assay [5] (setting [8]) were 64 µg/mL (≈ 151 µM), 32 µg/mL (≈ 75.4 µM) and 64 µg/mL (≈ 151 µM), respectively.
On to `N=C(N)CCc1ccc(OCCCCCCCCOc2ccc(CCC(=N)N)cc2)cc1` [compound 108, 1,8-bis(4-(2-(amidino)ethyl)phenoxy)octane], for which the MIC is 16 µg/mL (≈ 36.5 µM) in assay [2]; 4 (1) mg/L in assay [3] (setting [9]); 2 µg/mL (≈ 4.56 µM) in assay [3] (setting [7]); 8 µg/mL (≈ 18.2 µM) in assay [4]; 32 µg/mL (≈ 73 µM) in assay [5] (setting [8]).
On to `N=C(N)CCc1ccc(OCCCCCCCCCCOc2ccc(CCC(=N)N)cc2)cc1` [compound 110, 1,10-bis(4-(2-(amidino)ethyl)phenoxy)decane], for which the MIC in assay [1] is 1 µg/mL (≈ 2.14 µM); in assay [2], 16 µg/mL (≈ 34.3 µM); in assay [3] (setting [7]), 1 µg/mL (≈ 2.14 µM); in assay [4], 2 µg/mL (≈ 4.29 µM); in assay [5] (E. coli ATCC 25922, reference strain) it was 8 (1) mg/L; in assay [5] (setting [8]), 4 µg/mL (≈ 8.57 µM).
